In patent US20250367225A1 (priority 2022, published 2025):

Experiments:
[1] = test system: SARS-COV-2 Omicron BA.1 variant (B.1.1.529); parameters: species or system BALB/c mice; conditions: mouse, in vivo
[2] = test system: SARS-COV-2 Delta variant (B.1.617.2); parameters: species or system Syrian hamsters; conditions: hamster, in vivo

How did the body weight [1] turn out when `CCCCCCCCCCCCCC[C@@H](O)[C@@H](O)[C@H](CO[C@H]1O[C@H](CO)[C@H](O)[C@H](O)[C@H]1O)NC(=O)CCCCCCCCCCc1ccc(F)cc1` [7DW8-5] was run?
The body weight was “significant weight gain”.

And the “virus replication in lung tissues” value [1]?
The value was “complete inhibition”.

What about the “viral load in lung tissues” value [2] of the same molecule?
The value was “significantly decreased”.

And the “viral load in nasal tissues” value [2]?
Its value is “significantly decreased”.
